# Results as given in patent US20180221487A1, “NOVEL PROTEIN TRANSFECTION COMPOSITIONS AND USES THEREOF” (Chang Gung Memorial Hospital, Linkou, priority 2017, published 2018).
# System: human ovarian cancer cells (MDAH2774)
# Test: Protein transfection, immunofluorescent staining / confocal microscopy
# Type: cell-based
# Settings: transfected using 20-30 mM HEPES buffer
# Method: Immunofluorescent staining procedure: After protein transfection is completed, the cells in the culture dish were washed three times with phosphate buffered saline (PBS) and fixed with 4% paraformaldehyde for 20 min. The cells were washed again with PBS, perforated with 0.1% Triton X-100 for 5 min, and blocked with 10% BSA for 30 min. For Alexa Fluor 488 anti-mouse IgGs, cells were stained with DAPI for 10 min. For B23, histone 1 or GAPDH antibody transfection, cells were stained with Alexa Fluor 488 or 546 anti-mouse IgG antibodies for 30 min and then stained with DAPI. For rhSTIP1 proteins or Flag-Rev peptides transfection, cells were stained with anti-v5 or anti-flag antibodies, respectively, and then stained with Alexa Fluor 488 anti-mouse IgG and DAPI. All images were detected by confocal microscopes (Leica, Wetzlar, Germany). The fluorescent signals were analyzed and quantified by Q-Win software (Leica, Wetzlar, Germany).
# FIG. 1 schematically illustrates the protein transfection procedure. Briefly, the protein of interest and a protein transfection composition, such as HEPES buffer, were mixed and incubated for about 15 min to about 30 min to form a mixture (Panel A). Cells to be transfected were replaced in a minimal essential medium (Panel B). The mixture in Panel A was added to the cells in Panel B and incubated at 37° C. for about 4 to about 24 hours (Panel C). The protein transfection efficiency can be analyzed using immunofluorescent staining or flow cytometry (Panel D).
# An in vitro evaluation of the optimal protein transfection condition was performed. According to the steps in FIG. 1. rhSTIP1 was incubated with HEPES buffers of different concentrations (5 or 20 mM) or Opti-MEM (control) at room temperature for about 15 minutes to form the protein mixtures to transfect human ovarian cancer cells. The mixtures were added to the cell culture dish comprising Opti-MEM and incubated at 37° C. for about 4 to about 24 hours.
# Different amounts of Alexa Fluor® 488 anti-mouse IgG (0, 2, 4, 8, or 16 μg) were incubated with 20 mM HEPES buffer and mixed with ovarian (MDAH2774) cancer cells in Opti-MEM.
# Alexa Fluor 488 anti-mouse IgG antibodies were mixed with 20 mM HEPES to form a mixture. […] Protein transfection efficiency was assessed using confocal fluorescent microscope.
# The following proteins were incubated with Opti-MEM (control group) or 20-30 mM HEPES buffer to transfect ovarian cancer cells (MDAH2774 or MOSEC) or endometrial cancer cells: Alexa Fluor 488-conjugated, anti-mouse IgG antibody (about 150 kDa), anti-B23 antibody, anti-histone 1 antibody, anti-STIP1 antibody, rhSTIP1 protein (62.6 kDa), Flag-Rev peptide (<5 kDa) and FITC-Rev peptide (<5 kDa). […] Protein transfection efficiency was assessed by staining the transfected cancer cells with Alexa Fluor 488 or 594 anti-mouse IgG antibodies (for Alexa Fluor 488-conjugated anti-mouse IgG antibody, anti-B23 antibody, anti-histone 1 antibody, anti-STIP1 antibody), v5 antibody (for rhSTIP1), or anti-Flag antibody (for Flag-Rev peptide), and fluorescent signals were analyzed with confocal microscopy.
# The protein transfection efficiency of HEPES was compared to other commercial reagents, such as PULsin™, ProteoJuice™, Pro-Ject™, Xfect™, and BioPORTER®. […] The transfected ovarian cancer cells were stained with Alexa Fluor 488 anti-mouse IgG antibodies and protein transfection efficiency was assessed by confocal fluorescent microscopy.
substance,measurement,value
"rhSTIP1: v5-tagged recombinant human STIP1 protein (BiP-STIP1-V5-His), 62.6 kDa",fluorescent signal of transfected protein (confocal microscopy),detected
